Data as given in ChEMBL document CHEMBL4842348 (J Med Chem, 2021).
Values after ≈ are worked out from the molar mass of the structure shown. Values belong to the molecule of their own block, whether it stands above or below them.

How the values were obtained:
[1] = Lipophilicity, logD of the compound at pH 7.3 by HPLC analysis; format: physicochemical; conditions: buffer
[2] = Solubility of the compound in pH 7 phosphate buffer by shake-flask method; format: physicochemical
[3] = Half life in C57BL/6 mouse at 1 mg/kg, iv; format: ADME, organism-based; conditions: in vivo
[4] = Oral bioavailability in C57BL/6 mouse at 2 mg/kg; format: ADME, organism-based; conditions: in vivo
[5] = Solubility of the compound in pH 7 phosphate buffer; format: physicochemical
[6] = Dose normalized AUC in C57BL/6 mouse at 2 mg/kg, po; format: ADME, organism-based; conditions: in vivo
[7] = Cmax in C57BL/6 mouse at 1 mg/kg, iv and 2 mg/kg, po; format: ADME, organism-based; parameters: dose 2 mg/kg; conditions: in vivo
[8] = Total clearance in C57BL/6 mouse in whole blood at 1 mg/kg, iv; format: ADME, organism-based
[9] = Metabolic stability in liver microsomes (unknown origin); format: ADME, Microsome
[10] = Terminal half life in C57BL/6-transgenic mouse expressing human CETP at 100 mg/kg, po qd treated for 7 days measured for 240 hrs; format: ADME, organism-based; conditions: C57BL/6-transgenic expressing human CETP, in vivo, time 7 day, read-out: beta t1/2 (converted)
[11] = Clearance in CD1 mouse at 1 mg/kg, iv and 2 mg/kg, po; format: ADME, organism-based; conditions: in vivo
[12] = Volume of distribution at steady state in CD1 mouse at 1 mg/kg, iv and 2 mg/kg, po; format: ADME, organism-based; conditions: in vivo, read-out: Vdss
[13] = MRT in CD1 mouse at 1 mg/kg, iv and 2 mg/kg, po; format: ADME, organism-based; conditions: in vivo
[14] = Bioavailability in CD1 mouse at 1 mg/kg, iv and 2 mg/kg, po; format: ADME, organism-based; conditions: in vivo
[15] = Dose normalized AUC in CD1 mouse at 1 mg/kg, iv and 2 mg/kg, po; format: ADME, organism-based; conditions: in vivo
[16] = Terminal half life in DIO NFR-transgenic mouse adipose tissue at 30 mg/kg, po once daily for 14 days; format: ADME, organism-based; conditions: time 14 day, read-out: beta t1/2 (converted)
[17] = Terminal half life in DIO NFR-transgenic mouse plasma at 30 mg/kg, po once daily for 14 days; format: ADME, organism-based; conditions: time 14 day, read-out: beta t1/2 (converted)
[18] = Terminal half life in DIO NFR-transgenic mouse liver at 30 mg/kg, po once daily for 14 days; format: ADME, organism-based; conditions: time 14 day, read-out: beta t1/2 (converted)
[19] = Half life in C57BL/6 mouse at 0.6 mg/kg, iv; format: ADME, organism-based; conditions: in vivo
[20] = Terminal half life in DIO NFR-transgenic mouse liver at 100 mg/kg, po once daily for 14 days; format: ADME, organism-based; conditions: in vivo, time 14 day
[21] = Terminal half life in DIO NFR-transgenic mouse adipose tissue at 100 mg/kg, po once daily for 14 days; format: ADME, organism-based; conditions: in vivo, time 14 day
[22] = Terminal half life in C57BL/6-transgenic mouse expressing human CETP at 200 mg/kg, po qd treated for 7 days measured for 240 hrs; format: ADME, organism-based; conditions: in vivo, 168 h, time 7 day
[23] = Terminal half life in DIO NFR-transgenic mouse plasma at 100 mg/kg, po once daily for 14 days; format: ADME, organism-based; conditions: time 14 day, read-out: beta t1/2 (converted)

Compound: COc1ncc(-c2ccc(C(=O)O)cc2C)cc1-c1cc(C(F)(F)F)c(OC)nc1CN1C(=O)O[C@H](c2cc(C(F)(F)F)cc(C(F)(F)F)c2)[C@@H]1C
logD [1]: 5.7
solubility thermodynamic [2]: 5 µM (≈ 3.72 µg/mL)

Compound: COc1ccc(C(C)C)cc1-c1ccc(C(F)(F)F)cc1CN1C(=O)O[C@H](c2cc(C(F)(F)F)cc(C(F)(F)F)c2)[C@@H]1C
half-life [3]: 4.9 h
bioavailability [4]: 17%
solubility [5]: < 1 µM
AUC/dose [6]: 0.29 µM·kg·h/mg
logD [1]: > 6.9
solubility thermodynamic [2]: < 2 µM
Cmax [7]: 160 nM
clearance [8]: 19 mL/min/kg

Compound: COc1ccc(-c2ccc(C(=O)O)cc2C)cc1-c1cnc(N(C)C)nc1CN1C(=O)O[C@H](c2cc(C(F)(F)F)cc(C(F)(F)F)c2)[C@@H]1C
logD [1]: 4.8
solubility thermodynamic [2]: 43 µM (≈ 29.6 µg/mL)

Compound: COc1ccc(-c2ccc(C(=O)O)cc2C)cc1-c1ccc(C(F)(F)F)cc1CN1C(=O)O[C@H](c2cc(C(F)(F)F)cc(C(F)(F)F)c2)[C@@H]1C
half-life [3]: 2.5 h
bioavailability [4]: 65%
solubility [5]: 16 µM (≈ 11.4 µg/mL)
AUC/dose [6]: 0.86 µM·kg·h/mg
Cmax [7]: 430 nM
clearance [8]: 18 mL/min/kg

Compound: COc1ccc(-c2ccc(C(=O)O)cc2C)cc1-c1cnc(C(C)(F)F)nc1CN1C(=O)O[C@H](c2cc(C(F)(F)F)cc(C(F)(F)F)c2)[C@@H]1C
logD [1]: 4.6
solubility thermodynamic [2]: 20 µM (≈ 14.2 µg/mL)

Compound: COc1ccc(-c2ccc(C(=O)O)cc2C)cc1-c1cnc(C(F)(F)F)nc1CN1C(=O)O[C@H](c2cc(C(F)(F)F)cc(C(F)(F)F)c2)[C@@H]1C
logD [1]: 4.9
solubility thermodynamic [2]: 6 µM (≈ 4.28 µg/mL)

Compound: COc1ccc(-c2ccc(C(=O)O)cc2C)cc1-c1cnc(N2CC(F)C2)nc1CN1C(=O)O[C@H](c2cc(C(F)(F)F)cc(C(F)(F)F)c2)[C@@H]1C
logD [1]: 4.6
solubility thermodynamic [2]: 8 µM (≈ 5.75 µg/mL)

Compound: COc1ncc(-c2ccc(C(=O)O)cc2C)cc1-c1ccc(C(F)(F)F)nc1CN1C(=O)O[C@H](c2cc(C(F)(F)F)cc(C(F)(F)F)c2)[C@@H]1C
logD [1]: 5.1
solubility thermodynamic [2]: 9 µM (≈ 6.42 µg/mL)

Compound: Cc1cc(C(=O)O)ccc1-c1ccc(Cl)c(-c2ccc(C(F)(F)F)cc2CN2C(=O)O[C@H](c3cc(C(F)(F)F)cc(C(F)(F)F)c3)[C@@H]2C)c1
half-life [3]: 62 h
bioavailability [4]: 43%
solubility [5]: 43 µM (≈ 30.8 µg/mL)
AUC/dose [6]: 1.8 µM·kg·h/mg
logD [1]: 6.2
solubility thermodynamic [2]: 43 µM (≈ 30.8 µg/mL)
half-life [10]: 83 h
Cmax [7]: 390 nM
clearance [8]: 5.6 mL/min/kg

Compound: COc1ncc(-c2cc(-c3ccc(C(=O)O)cc3C)ccc2OC)c(CN2C(=O)O[C@H](c3cc(C(F)(F)F)cc(C(F)(F)F)c3)[C@@H]2C)n1
logD [1]: 4.2
solubility thermodynamic [2]: 52 µM (≈ 35.1 µg/mL)

Compound: COc1ccc(-c2ccc(C(=O)O)cc2C)cc1-c1ccc(C(F)(F)F)nc1CN1C(=O)O[C@H](c2cc(C(F)(F)F)cc(C(F)(F)F)c2)[C@@H]1C
logD [1]: 5.3
solubility thermodynamic [2]: 29 µM (≈ 20.7 µg/mL)

Compound: Cc1cc(C)c2c(c1)[C@@H](N(Cc1cc(C(F)(F)F)cc(C(F)(F)F)c1)c1nnn(C)n1)CCCN2C[C@H]1CC[C@H](C(=O)O)CC1 [EVACETRAPIB]
half-life at […] [16]: 1.3 h
half-life at […] [17]: 7.1 h
half-life at […] [18]: 18 h

Compound: COc1ncc(-c2c(C)cc(C(=O)O)cc2C)cc1-c1ccc(C(F)(F)F)cc1[C@@H]1CC[C@H]2[C@@H](c3cc(F)cc(C(F)(F)F)c3)OC(=O)N12
logD [1]: 4.8
Stabilty [9]: Unstable

Compound: COc1ccc(-c2ccc(C(=O)O)cc2C)cc1-c1cnc(N(C)C)nc1CN1C(=O)O[C@H](c2cc(Cl)cc(C(F)(F)F)c2)[C@@H]1C
logD [1]: 4.6

Compound: COc1ccc([C@H]2CC[C@H](C(=O)O)CC2)cc1-c1ccc(C(F)(F)F)cc1[C@@H]1CC[C@H]2[C@@H](c3cc(C(F)(F)F)cc(C(F)(F)F)c3)OC(=O)N12
logD [1]: 5.6

Compound: COc1ccc(-c2ccc(C(=O)O)cc2C)cc1-c1cnc(N2CCOCC2)nc1CN1C(=O)O[C@H](c2cc(C(F)(F)F)cc(C(F)(F)F)c2)[C@@H]1C
logD [1]: 4.8

Compound: COc1ncc(-c2ccc(C(=O)O)cc2C)cc1-c1ccc(C(F)(F)F)cc1[C@@H]1CC[C@H]2[C@@H](c3cccc(C(F)(F)F)c3)OC(=O)N12
logD [1]: 4.7

Compound: COc1cc(F)c(-c2ccc(-c3nnc(N)o3)cc2C)cc1-c1ccc(C(F)(F)F)cc1[C@@H]1CC[C@H]2[C@@H](c3cc(C)cc(C(F)(F)F)c3)OC(=O)N12
logD [1]: 6.6

Compound: COc1ncc(-c2ccc(C(=O)O)cc2C)cc1-c1cnc(C(F)(F)F)cc1CN1C(=O)O[C@H](c2cc(C(F)(F)F)cc(C(F)(F)F)c2)[C@@H]1C
logD [1]: 4.5

Results, then the molecule that gave them:

Stabilty [9]: Unstable
Compound: COc1cc(F)c(-c2ccc(C(=O)O)cc2C)cc1-c1ccc(C(F)(F)F)cc1[C@@H]1CC[C@H]2[C@@H](c3cc(C)cc(C(F)(F)F)c3)OC(=O)N12

clearance [11]: 33 mL/min/kg
Vd [12]: 5.6 L/kg
MRT [13]: 2.8 h
bioavailability [14]: 140%
AUC/dose [15]: 0.7 µM·h
Compound: COc1ccc(-c2ccc(C(=O)O)cc2C)cc1-c1cnc(N(C)C)nc1[C@@H]1CC[C@H]2[C@@H](c3cc(C(F)(F)F)cc(C(F)(F)F)c3)OC(=O)N12

logD [1]: 5.1
Compound: COc1cc(F)c(-c2ccc(C(=O)O)cc2C)cc1-c1ccc(F)cc1[C@@H]1CC[C@H]2[C@@H](c3cc(C(F)(F)F)cc(C(F)(F)F)c3)OC(=O)N12

clearance [11]: 6.6 mL/min/kg
Vd [12]: 2.3 L/kg
logD [1]: 5.5
MRT [13]: 5.8 h
bioavailability [14]: 60%
AUC/dose [15]: 3.4 µM·h
Compound: COc1cc(F)c(-c2ccc(C(=O)O)cc2C)cc1-c1ccc(C(F)(F)F)cc1[C@@H]1CC[C@H]2[C@@H](c3cc(C(F)(F)F)cc(C(F)(F)F)c3)OC(=O)N12

half-life [19]: 3.6 h
beta t1/2 [20]: 49 h
solubility [5]: < 1 µM
AUC/dose [6]: 0.36 µM·kg·h/mg
logD [1]: > 6.9
beta t1/2 [21]: 150 h
beta t1/2 [22]: 121 h
half-life at […] [23]: 27 h
Compound: COc1cc(F)c(C(C)C)cc1-c1ccc(C(F)(F)F)cc1CN1C(=O)O[C@H](c2cc(C(F)(F)F)cc(C(F)(F)F)c2)[C@@H]1C [ANACETRAPIB]

logD [1]: 6.6
Stabilty [9]: Unstable
Compound: COc1ccc(-c2ccc(C(=O)O)cc2C)cc1-c1cc(C(C)C)c(N(C)C)nc1[C@@H]1CC[C@H]2[C@@H](c3cc(C(F)(F)F)cc(C(F)(F)F)c3)OC(=O)N12

logD [1]: 4.6
Compound: COc1ccc(-c2ccc(C(=O)O)cc2C)cc1-c1cnc(N(C)C)cc1[C@@H]1CC[C@H]2[C@@H](c3cc(C(F)(F)F)cc(C(F)(F)F)c3)OC(=O)N12

logD [1]: 5.8
Compound: COc1ccc(-c2ccc(C(=O)O)cc2C)cc1-c1ccc(N(C)C)nc1[C@@H]1CC[C@H]2[C@@H](c3cc(C(F)(F)F)cc(C(F)(F)F)c3)OC(=O)N12

logD [1]: 6.9
Compound: COc1cc(F)c(C(C)C)cc1-c1ccc(N(C)C)nc1[C@@H]1CC[C@H]2[C@@H](c3cc(C(F)(F)F)cc(C(F)(F)F)c3)OC(=O)N12

logD [1]: 4.7
Compound: COc1ccc(CCC(=O)O)cc1-c1ccc(C(F)(F)F)cc1[C@@H]1CC[C@H]2[C@@H](c3cc(C(F)(F)F)cc(C(F)(F)F)c3)OC(=O)N12
